This is an account of results in the Deep4Chem optical property database.

Several values for one entry are separate records, joined by “and”; a condition that tells them apart may be missing. Equal entries are not always repeated.

The series is described as follows: solvent given as SMILES.

For the molecule `O=S(=O)(c1cccc(-n2c3ccccc3c3ccccc32)c1)c1cccc(-n2c3ccccc3c3ccccc32)c1`, the emission maximum reads like this: (in C1CCOC1) 426 nm; (in CCCCC(CC)n1c2ccc(-n3c4ccccc4c4ccccc43)cc2c2cc(-n3c4ccccc4c4ccccc43)ccc21) 409.97 nm; (in Cc1ccccc1) 405 nm; (in ClC(Cl)Cl) 422 nm; (in c1cc(-n2c3ccccc3c3ccccc32)cc(-n2c3ccccc3c3ccccc32)c1) 419.94 nm.
For the molecule `CCN1/C(=C\c2c(-c3ccc(N(C)C)cc3)c(=O)c2=O)C=Cc2ccccc21`, the emission maximum runs as follows: (in C1CCCCC1) 427 nm; (in Cc1ccccc1) 434 nm; (in ClCCl) 588 nm.
In the case of `Nc1ccc(-c2ccc(N)cc2)cc1`, the emission maximum is, setting by setting: (in C1CCOC1) 394 nm; (in C1COCCO1) 392 nm; (in CC#N) 393 nm; (in CCCCCC) 373 nm; (in CCOC(C)=O) 391 nm; (in CN(C)C=O) 403 nm. The emission maximum by setting is: (in CO) 397 nm; (in CS(C)=O) 404 nm; (in Cc1ccccc1) 395 nm; (in ClC(Cl)Cl) 384 nm; (in ClCCl) 384 nm; (in O) 401 nm.
`c1ccc(N(c2ccccc2)c2c3ccccc3c(N(c3ccccc3)c3ccccc3)c3ccccc23)cc1` came in with an emission maximum (in Cc1ccccc1) of 510 nm.
In turn, `CCCCn1c(-c2ccc(-c3nnc(-c4cccs4)o3)cc2)nc2c3ccccc3c3ccccc3c21` yielded an emission maximum (in ClCCl) of 448 nm.
Consider `Cc1ccc(C)n1-c1ccc(N(C)C)cc1`, for which the emission maximum stood at 360 nm (in CC#N) and 347 nm (in CCCCCC).
On to `CC1=[N+]2C(=C(c3c4ccccc4c(-c4ccccc4)c4ccccc34)c3ccc(C)n3[B-]2(F)F)C=C1`, for which the emission maximum by setting is: (in CC#N) 536 nm; (in CCCCCC) 527 nm; (in CCO) 528 nm; (in CN(C)C=O) 533 nm; (in Cc1ccccc1) 532 nm; (in ClCCl) 533 nm.
Consider `Fc1cc(F)c2cc3cccc[n+]3cc2c1`, for which the emission maximum (in O) is given as 420 nm.
In turn, `O=C(/C=C(\O)c1ccc(N2c3ccccc3Oc3ccccc32)cc1)c1ccc(N2c3ccccc3Oc3ccccc32)cc1` yielded an emission maximum (in Cc1ccccc1) of 594 nm and an emission maximum (in c1ccc2c(c1)c1ccccc1n2-c1ccc(-c2ccc(-n3c4ccccc4c4ccccc43)cc2)cc1) of 550.32 nm.
`c1cc(N2CCCC2)ccn1`: the emission maximum reads like this: (in CC1CCCCC1) 313 nm; (in CCO) 313 nm; (in ClC(Cl)Cl) 313 nm.
In the case of `NCCc1c[nH]c2ccc(O)cc12`, the emission maximum by setting is: (in CC#N) 332 nm; (in CC(C)O) 335 nm; (in CO) 334 nm; (in O) 337 nm.
`O=P1(c2ccccc2)c2cccc3ccc4ccc1n4c23` (configuration not stated) came in with an emission maximum (in ClCCl) of 496 nm.
Molecule `Cc1ccc(-n2c(-c3cccc4cc[nH]c34)nc3c4ccccc4c4ccccc4c32)cc1` displayed an emission maximum (in Cc1ccccc1) of 377 nm.
As for `Cc1ccc([B-]2(c3ccc(C)cc3)n3nc(C(F)(F)F)cc3-c3c4ccccc4cc[n+]32)cc1`, the emission maximum turned out to be 407 nm (in C1CCCCC1), 407 nm (in Cc1ccccc1) and 407 nm (in ClCCl).
For the molecule `CC1(C)CC(/N=C/c2ccc3ccc4cccc5ccc2c3c45)CC(C)(C)N1[O]`, the emission maximum is, setting by setting: (in C1CCCCC1) 385 nm; (in CC#N) 375 nm; (in CO) 400 nm; (in ClC(Cl)Cl) 375 nm.
As to `CCN(CC)c1ccc2nc3c4ccccc4c(=O)cc-3oc2c1`, the emission maximum is, setting by setting: (in C1COCCO1) 582 nm; (in CC#N) 620 nm; (in CC(C)=O) 614 nm; (in CCCCCC) 532 nm; (in CCO) 638 nm; (in CCOC(C)=O) 594 nm. The emission maximum runs as follows: (in CO) 643 nm; (in CS(C)=O) 635 nm; (in Cc1ccccc1) 572 nm; (in ClCCl) 608 nm.
With `O=C1c2cccc3c(-n4c5ccccc5c5ccccc54)ccc(c23)C(=O)N1c1ccccc1`, the emission maximum (in C1CCOC1) is 546 nm, the emission maximum (in CCCCCC) came to 443 nm, the emission maximum (in ClC(Cl)Cl) worked out at 495 nm and the emission maximum (in ClCCl) is given as 568 nm.
As to `CCOC(=O)c1c(-c2c(Cl)c3cc(C)ccc3oc2=O)nn(-c2cccc(C)c2)c1C(=O)OCC`, the emission maximum (in ClCCl) stood at 418 nm.
With `CCOC(=O)c1sc2nc(-c3ccccc3)c(C)c(C#N)c2c1N`, the emission maximum is, setting by setting: (in C1COCCO1) 554 nm; (in CC#N) 570 nm; (in CCO) 580 nm; (in CCOC(C)=O) 558 nm; (in ClC(Cl)Cl) 550 nm; (in c1ccccc1) 549 nm.
In the case of `C[P+](c1c2ccccc2cc2ccccc12)(c1c2ccccc2cc2ccccc12)c1c2ccccc2cc2ccccc12`, the emission maximum (in C1CCOC1) was 494 nm.
`CC(C)n1c2cc(O)c(F)cc2c(=O)c2cc(F)c(O)cc21` displayed an emission maximum (in CCO) of 438 nm.
`[O-][n+]1c(-c2ccc(Br)cc2)cc(N2CCOCC2)nc1/C=C/c1ccccc1` came in with an emission maximum (in ClCCl) of 548 nm.
As to `COc1cc2cc(OC)c(C#Cc3ccc([N+](=O)[O-])cc3)cc2cc1C#Cc1ccc([N+](=O)[O-])cc1`, the emission maximum by setting is: (in C1CCOC1) 514 nm; (in ClC(Cl)Cl) 577 nm; (in ClCCl) 593 nm.
The molecule `CN(C)C1=Nc2cccc3cccc1c23` showed an emission maximum (in CC#N) of 589 nm.
Turning to `CCC1=C(C)c2cc3c(OC)cc(OC)cc3c(=O)n2C1=O`, the emission maximum was 476 nm (in CC#N), 510 nm (in CO), 485 nm (in CS(C)=O) and 469 nm (in ClC(Cl)Cl).
As to `c1ccc(-n2c(-c3cccc4ccccc34)nc3c4cccc5ccc6cccc(c6c54)c32)cc1`, the emission maximum by setting is: (in C1CCOC1) 422.46 nm; (in CCCCCC) 384 nm; (in CS(C)=O) 436 nm; (in Cc1ccccc1) 420 nm; (in ClCCl) 424.78 nm.
Regarding `O=C1OC(=O)c2ccc(N(c3ccccc3)c3c4ccccc4cc4ccccc34)c3cccc1c23`, the emission maximum reads like this: (in C1CCOC1) 591 nm; (in CCCCCC) 514 nm; (in ClCCl) 608 nm; (in c1ccccc1) 560 nm.
The molecule `O=C(O)C1=C/C(=C/C=[NH+]/c2ccc3c(C(F)(F)F)cc(=O)oc3c2)CC(C(=O)O)N1` (configuration not stated) showed an emission maximum (in O) of 570 nm.
The molecule `CCN(CC)c1ccc2c(-c3ccccc3C(=O)O)c3c([o+]c2c1)/C(=C/Nc1ccccc1)CCC3` gave an emission maximum (in CCO) of 641 nm, an emission maximum (in ClC(Cl)Cl) of 644 nm and an emission maximum (in ClCCl) of 644 nm.
On to `c1ccc(-c2nc(-c3ccc(-c4nc(-c5ccccc5)c(-c5ccccc5)[nH]4)s3)[nH]c2-c2ccccc2)cc1`, for which the emission maximum is 457 nm (in C1CCOC1); 458 nm (in CC#N); 503 nm and 502.99 nm (in CC(=O)O); 460 nm and 458 nm (in CC(C)=O); 457 nm (in CCOC(C)=O); 454 nm and 454.01 nm (in CCOCC). Besides, the emission maximum (in CO) was found to be 457 nm; the emission maximum (in ClC(Cl)Cl) is 485 nm and 484.99 nm.
Regarding `CN(C)c1ccc2cc3c(cc2c1)OCCN=C3`, the emission maximum runs as follows: (in C1CCOC1) 425 nm; (in CC#N) 562 nm; (in CC(C)O) 447 nm; (in CCOC(C)=O) 426 nm; (in CN(C)C=O) 442 nm; (in CS(C)=O) 447 nm. The emission maximum is 415 nm (in Cc1ccccc1), 532 nm (in ClCCl) and 559 nm (in O).
Regarding `COc1ccc(-c2nc(-c3ccccc3)c(N(c3ccccc3)c3ccccc3)s2)cc1`, the emission maximum (in ClC(Cl)Cl) came to 457 nm.
`CCCCCCCCCCCCC(CCCCCCCCCC)Cn1c2cc(/C=C/C=C(C#N)C#N)c3cccc4c5cccc6c(/C=C/C=C(C#N)C#N)cc1c(c65)c2c34` (configuration not stated): the emission maximum reads like this: (in C1CCCCC1) 648 nm; (in CC#N) 702 nm; (in Cc1ccccc1) 668 nm; (in ClCCl) 697 nm.
In turn, `[NH3+]C(Cc1ccc(O)c(O)c1)C(=O)[O-]` (configuration not stated) came in with an emission maximum (in O) of 318 nm.
`C[N+]1=C(/C=C/C=C2/N(CCC[N+](C)(C)C)c3ccc(S(=O)(=O)[O-])cc3C2(C)C)C(C)(C)c2ccccc21`: the emission maximum (in CS(C)=O) amounted to 570 nm.
As to `CN(C)c1ccc2c(-c3ccc(C(=O)[O-])cc3C(=O)[O-])c3ccc(=[N+](C)C)cc-3oc2c1`, the emission maximum turned out to be 569 nm (in CCO) and 578 nm (in O).
As to `CCCCCC(=O)c1c2c(c(C(=O)CCCCC)c3c1OC1(CCCC1)O3)OC1(CCCC1)O2`, the emission maximum is 561 nm (in CC#N); 525 nm (in CCCCCC); 596 nm (in CCO); 611 nm (in CO); 561 nm (in ClCCl).
On to `CCN1C(=CC2=C([O-])C(=CC3=[N+](CC)c4ccccc4C3(C)C)C2=O)C(C)(C)c2ccccc21`, for which the emission maximum is 644 nm (in CO) and 645 nm (in ClC(Cl)Cl).
Regarding `C[Si](C)(c1cccc2cc3ccccc3cc12)[Si](C)(C)c1cccc2cc3ccccc3cc12`, the emission maximum (in C1CCCCC1) came out at 412 nm and the emission maximum (in CC#N) was determined as 412 nm.
In turn, `O=c1c2cccc3cccc(c32)c2nc3cccc4cccc(c43)n12` registered an emission maximum (in ClCCl) of 682 nm.
For the setting “in C1CCOC1”, `c1ccc(-c2cc(-c3ccccc3)cc(-c3ccc4c(c3)C3(c5cc(-c6cc(-c7ccccc7)cc(-c7ccccc7)c6)ccc5-4)c4ccccc4-c4c3c3c5ccccc5ccc3c3ccccc43)c2)cc1` showed an emission maximum of 420 nm.
For `C(=C\c1ccc(-c2cccc3ccccc23)s1)/c1cccs1`, under “in ClCCl”, the emission maximum came out at 453 nm.
